From patent US7045531B1, “Composition comprising a metal chelator and a method of treating amyloidosis by administering the metal chelator” (The General Hospital Corporation, priority 1997, dated 2006)
Entries after “also recorded” stand apart in the source; their conditions may differ.

Key:
[1] = Effect of OH. scavengers on OH. generation by Vitamin C (TBARS); format: biochemical; conditions: scavenger 5 mM
Method: (§1) FIGS. 16A and 16B are graphical representations showing production of the hydroxyl radical (OH.) from the incubation of Aβ in the presence of substoichiometric amounts of Fe^3+ or Cu^2+. […] All data points are means±SD, n=3.
(§2) The Thiobarbituric Acid-Reactive Substance (TBARS) assay for incubation mixtures with Fe^3+ or Cu^2+ was performed in a 96-well microtiter format modified from established protocols (Gutteridge et al. Biochim. Biophys. Acta 759: 38–41 (1983)). Aβ peptide species (10 μM) or Vitamin C (100 μM), were incubated with Fe^3+ or Cu^2+ (1 μM) and deoxyribose (7.5 mM, Sigma) in PBS, pH 7.4. Following incubation (37° C., 1 hour), glacial (17 M) acetic acid and 2-thiobarburic acid (1%, w/v in 0.05 M NaOH, Sigma) were added and heated (100° C., 10 min). The final mixtures were placed on ice for 1–3 minutes before absorbances at 532 nm were measured. The net absorbance change for each sample were obtained by deducting the absorbance from a control sample consisting of identical chemical components except for the Vitamin C or Aβ peptides.

[2] = biological target: Aβ1-42 (Homo sapiens, UniProt P05067); assay: Effect of OH. scavengers on OH. generation by Aβ1-42 (TBARS); format: biochemical; conditions: scavenger 5 mM; Fe^3+ or Cu^2+
Sequence of Aβ1-42 (P05067 672-713 limits assumed): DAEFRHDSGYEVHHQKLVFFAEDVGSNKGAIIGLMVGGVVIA
Method: as §1, §2

[3] = Metal reduction assay, Fe^3+ (BP indicator); format: biochemical; conditions: Fe^3+ 10 μM; PBS pH 7.4; 1 hr, 37° C.
Method: (§3) The metal reduction assay was performed using a 96-well microtiter plate (Costar) based upon a modification of established protocols (Landers, J. W., et al., Amer. Clin. Path. 29:590 (1958); Landers. J. W. et al., Clinica Chimica Acta 3:329 (1958)). Polypeptides (10 μM) or Vitamin C (100 μM), metal ions (10 μM, Fe(NO3)3 or Cu(NO3)2), and reduced metal ion indicators, bathophenanthrolinedisulfonic acid (BP, for Fe^2+, Sigma, 200 μM) or bathocuproinedisulfonic acid (BC, for Cu^+, Sigma, […]), were coincubated in phosphate buffered saline (PBS), pH 7.4, for 1 hr at 37° C. The metal ion solutions were prepared by direct dilution in the buffer from their aqueous stocks purchased from National Institute of Standards and Technology (NIST). Absorbances were then measured at 536 nm (Fe^2+-BP complex) and 483 nm (Cu^+-BC complex), respectively, using a 96-well plate reader (SPECTRAmax 250, Molecular Devices, Calif.). In control samples, both metal ion and indicator were present to determine the background buffer signal. As a further control, both metal ion and peptide were present in the absence of indicator to estimate the contribution of light scattering due to turbidity to the absorbance reading at these wavelengths. The net absorbances (ΔA) at 536 nm or 483 nm were obtained by deducting the absorbances from these controls from the absorbances generated by the peptide and metal in the presence of the respective indicator.
The concentrations of reduced metal ions (Fe^2+ or Cu^+) were quantified based on the formula: Fe^2+ or Cu^+ (˜M)=A*10^6/(L*M), where L is the measured equivalent vertical pathlength for a well of 300 μL volume as described in the instrument's specifications manual (0.856 cm for Fe^2+; 1.049 cm for Cu^+); M is the known molecular absorbance (M^−1 cm^−1) which is 7124 (for Fe^2+-BP complex) or 2762 (for Cu^+-BC complex).

[4] = Metal reduction assay, Cu^2+ (BC indicator); format: biochemical; conditions: Cu^2+ 10 μM; PBS pH 7.4; 1 hr, 37° C.
Method: as §3, with “Polypeptides” for “The metal reduction assay was performed using a 96-well microtiter plate (Costar) based upon a modification of established protocols (Landers, J. W., et al., Amer. Clin. Path. 29:590 (1958); Landers. J. W. et al., Clinica Chimica Acta 3:329 (1958)). Polypeptides”

[5] = Cu^+ generation / metal reduction (Example 2); format: biochemical; conditions: 10 μM in PBS; Cu^2+ 10 μM; 30 minutes, 37° C.
Method: This method is modified from a protocol assaying serum copper and iron (Landers, J. W., et al., Amer. J. Clin. Path. 29:590 (1958)). It is based on the fact that there are optimal visible absorption wavelengths of 483 nm and 535 nm for Cu^+ complexed with bathocuproinedisulfonic (BC) anion and Fe^2+ coordinated by bathophenanthrolinedisulfonic (BP) anion, respectively.
Aβ (10 μM in PBS, pH 7.4 or 6.8, as shown) was incubated for 30 minutes (37° C.) in the presence of Cu^2+ 10 μM±Zn^2+ 10 μM). Cu^+ levels (n=3, ±SD) were assayed against a standard curve.

[6] = system: Aβ deposits in AD brain tissue; assay: Chelator-promoted solubilization (extraction) of Aβ from AD brain homogenates, Western blot densitometry; format: biochemical, human; conditions: for Effect of Chelators (% change from control) upon extraction of Aβ: mean of 6 AD brain samples; for chelator concentration of peak Aβ solubilization (lower peak) / chelator concentration of peak Aβ solubilization (upper peak): titration curves
Method: 0.5 g of prefrontal cortex was dissected and homogenized in PBS±chelator as indicated. The homogenate was then centrifuged (100,000 g) and the supernatant removed, and a sample taken for western blot assay using anti-Aβ specific antibodies after Tricine PAGE. Densitometry was performed against synthetic peptide standards.
(§4) Suitable quantities of gray matter from each subject were minced to serve as pools of homogenous tissue. […] To obtain the soluble fraction, the homogenates were centrifuged at 100,000×g for 30 min (Beckman J180, Beckman instruments, Fullerton, Calif.) and the supernatant collected in 1 ml aliquots and stored on ice or immediately frozen at −70° C. In each experiment, all protein was precipitated from 1 ml of supernatant from each treatment group using 1:5 ice cold 10% trichloracetic acid and pelleted in a bench top microfuge (Heraeus, Osteroder, Germany) at 10,000×g. The remaining pellet was frozen at −70° C.
Precipitated protein was subjected to SDS polyacrylamide gel electrophoresis (SDS-PAGE) on Novex pre-cast 10–20% Tris-Tricine gels followed by Western transfer onto 0.2 μm nitrocellulose membrane (Biorad, Hercules, Calif.). […] Each gel included two or more lanes containing known quantities of synthetic Aβ which served as internal reference standards. Blot images were captured by a Relisys scanner with transparency adapter (Teco Information Systems, Taiwan, ROC) and densitometry conducted using the NIH Image 1.6 program (National Institutes for Health, USA., Modified for PC by Scion Corporation, Frederick, Md.), calibrated using a step diffusion chart. For quantitation of Aβ in brain extracts, the internal reference standards of synthetic Aβ were utilized to produce standard curves from which values were interpolated.

[7] = system: Aβ deposits in age-matched control / healthy brain tissue; assay: Chelator-promoted solubilization of Aβ from non-AD control brain tissue, Western blot; format: biochemical, human; conditions: chelator 2 mM
Excerpt: Using the same technique, zinc-mediated assembly of Aβ in normal brains was shown. FIGS. 20A and 20B show sedimentable Aβ deposits in healthy brain tissue. The effects of chelators in enhancing Aβ extraction from brain homogenates is also observed in normal tissue. FIG. 20A illustrates a western blot with anti-Aβ antibody of material extracted from an individual with no history of neurological disorder. T=TPEN, E=EGTA, B=bathocuproine.
as §4
Precipitated protein was subjected to SDS polyacrylamide gel electrophoresis (SDS-PAGE) on Novex pre-cast 10–20% Tris-Tricine gels followed by Western transfer onto 0.2 μm nitrocellulose membrane (Biorad, Hercules, Calif.). Aβ was detected using the WO2, G210 or G211 monoclonal antibodies (Ida, N. et al., J. Biol. Chem. 271:22908 (1996)) in combination with HRP-conjugated rabbit anti-mouse IgG (Dako, Denmark), and visualized using chemiluminescence (ECL, Amersham Life Science, Little Chalfont, Buckinghamshire, UK). Each gel included two or more lanes containing known quantities of synthetic Aβ which served as internal reference standards. […] For quantitation of Aβ in brain extracts, the internal reference standards of synthetic Aβ were utilized to produce standard curves from which values were interpolated.

[8] = chelator 2 mM, mean of AD subjects 1-6

## C[S+](C)[O-] [DMSO, dimethyl sulfoxide]
[1]; in the presence of Cu^2+
  effect on generation of OH. by Vitamin C: suppressed
[1]; in the presence of Fe^3+
  effect on generation of OH. by Vitamin C: suppressed
[2]
  effect on generation of OH. by Aβ1-42: neither were able to quench

## Aβ1-28: Aβ fragment 1-28, purchased
[3]
  available Fe^3+ reduced: did not significantly facilitate the reduction of Fe^3+
[4]
  available Cu^2+ reduced: reduced no Cu^2+

## O=C1O[C@H]([C@@H](O)CO)C(O)=C1O [Vitamin C, ascorbic acid]
[3]
  available Fe^3+ reduced: 15%
[4]
  available Cu^2+ reduced: reduced Cu^2+ efficiently

## insulin: histidine-containing peptide that can bind copper and zinc
[5]
  Cu^2+ reduction / redox reactivity: no Cu^2+ reduction
[3]
  available Fe^3+ reduced: did not significantly facilitate the reduction of Fe^3+
[4]
  available Cu^2+ reduced: 10%

## OC[C@@H](O)[C@@H](O)[C@H](O)[C@H](O)CO [Mannitol]
[1]; in the presence of Fe^3+
  effect on generation of OH. by Vitamin C: suppressed
[2]
  effect on generation of OH. by Aβ1-42: neither were able to quench

## O=C(O)CN(CCOCCOCCN(CC(=O)O)CC(=O)O)CC(=O)O [EGTA]
[6]; chelator 0.1 mM
  Effect of Chelators (% change from control) upon extraction of Aβ: 207%
[6]; chelator 2 mM
  effect on Aβ signal: virtually abolished the signal for Aβ; also recorded: always produced a diminution in Aβ signal
[6]; chelator 2.0 mM
  Effect of Chelators (% change from control) upon extraction of Aβ: 46%
[6]
  chelator concentration of peak Aβ solubilization (lower peak): ~0.004 mM
  chelator concentration of peak Aβ solubilization (upper peak): ~0.1 mM

## c1ccc(CN(CCN(Cc2ccccn2)Cc2ccccn2)Cc2ccccn2)nc1 [TPEN, N,N,N′,N′-tetrakis [2-pyridyl-methyl]ethylenediamine]
[6]; 6 AD brains
  mean increase in solubilized Aβ over PBS alone: around 2 fold
[6]; chelator 0.1 mM
  Effect of Chelators (% change from control) upon extraction of Aβ: 182%
[6]; chelator 2.0 mM
  Effect of Chelators (% change from control) upon extraction of Aβ: 241%
[6]; [8]
  Extractable Aβ (% of total), mean X: (4.6) %
  Extractable Aβ, mean X: 2.73 µg/g
[6]; chelator 2 mM, mean with chelator over mean with PBS, AD
  X C/PBS: 2.60
[6]
  chelator concentration of peak Aβ solubilization (lower peak): ~0.004 mM
  chelator concentration of peak Aβ solubilization (upper peak): ~0.1 mM
[7]; mean of AC subjects 1-5
  Extractable Aβ (% of total), mean X: (16.7) %
  Extractable Aβ, mean X: 0.40 µg/g
[7]; mean with chelator over mean with PBS, AC
  X C/PBS: 1.6

## Aβ1-42: synthetic human Aβ1-42 peptide
[3]
  available Fe^3+ reduced: 50%
